Laboratory results: the NIST ThermoML archive (doi:10.1016/j.fluid.2008.07.018)
± gives the expanded uncertainty stated by the source.

Tests used:
[1] = Liquid; for mass density: 298.15 K, 101.33 kPa
[2] = refractive index (Na D-line) (dimensionless); conditions: 298.15 K; 101.33 kPa; Liquid; Standard Abbe refractometry

SMILES	vapor or sublimation pressure ([1]; 472.55 K) [kPa]	vapor or sublimation pressure ([1]; 424.35 K) [kPa]	mass density [1] [kg/m3]	refractive index [2]	vapor or sublimation pressure ([1]; 455.25 K) [kPa]	vapor or sublimation pressure ([1]; 427.05 K) [kPa]	vapor or sublimation pressure ([1]; 402.85 K) [kPa]
CC(=O)N(C)C [N,N-dimethylethanamide]	–	–	936.3 ± 2.7	1.4357 ± 0.0007	–	–	–
Nc1ccccc1 [aniline]	–	–	1017.6 ± 3	1.5836 ± 0.0007	95.5 ± 4	–	–
Brc1ccccc1 [bromobenzene]	–	–	1488.1 ± 4.8	1.5571 ± 0.0007	–	95.5 ± 4	–
Clc1ccccc1 [chlorobenzene]	–	–	1106.3 ± 3.3	1.5218 ± 0.0007	–	–	95.5 ± 4

Continued, in another order:

vapor or sublimation pressure ([1]; 472.55 K) [kPa]	vapor or sublimation pressure ([1]; 424.35 K) [kPa]	SMILES	mass density [1] [kg/m3]	refractive index [2]	vapor or sublimation pressure ([1]; 455.25 K) [kPa]	vapor or sublimation pressure ([1]; 427.05 K) [kPa]	vapor or sublimation pressure ([1]; 402.85 K) [kPa]
95.5 ± 4	–	CC(=O)c1ccccc1 [acetophenone]	1023.8 ± 3	1.5342 ± 0.0007	–	–	–
–	95.5 ± 3.3	CN(C)C=O [dimethylformamide]	943.9 ± 1.6	1.4219 ± 0.0007	–	–	–
